# Data published in ChEMBL document CHEMBL3792363, “2,6-Bis(benzimidazol-2-yl)pyridine as a potent transmembrane anion transporter” (Bioorg Med Chem Lett, 2016).
# Tests used:
# [1] = Ionophoric activity assessed as induction of chloride influx into EYPC based liposomal membranes at 15% measured within 5 mins by lucigenin based fluorescence assay; conditions: artificial membrane
# [2] = Binding affinity to chloride anion assessed as association constant by spectrometric titration method
# [3] = Ionophoric activity assessed as induction of chloride influx into EYPC based liposomal membranes at 1 to 5% in presence of intravesicular NaNO3 by lucigenin based fluorescence assay; conditions: artificial membrane
# [4] = Binding affinity to nitrate anion assessed as association constant by spectrometric titration method
# [5] = Binding affinity to iodide anion assessed as association constant by spectrometric titration method
# [6] = Binding affinity to bromide anion assessed as association constant by spectrometric titration method
# [7] = Ionophoric activity assessed as induction of pH discharge across EYPC based liposomal membranes at 1 to 5% by pyranine based fluorescence assay; conditions: artificial membrane
# [8] = Ionophoric activity assessed as induction of pH discharge across EYPC based liposomal membranes at 5% by pyranine based fluorescence assay; conditions: artificial membrane
# [9] = Ionophoric activity assessed as induction of chloride influx into EYPC based liposomal membranes at 1 to 5% in presence of intravesicular Na2SO4 by lucigenin based fluorescence assay; conditions: artificial membrane
# [10] = Ionophoric activity assessed as induction of pH discharge across POPC/cholesterol (30%) based liposomal membranes at 1 to 5% by pyranine based fluorescence assay; conditions: artificial membrane
# [11] = Binding affinity to iodide anion assessed as association constant by spectrometric titration method relative to Me2bimpy
# [12] = Ionophoric activity assessed as induction of pH discharge across EYPC based liposomal membranes using chloride salt of Rb+ ions at 3% by pyranine based fluorescence assay; conditions: artificial membrane
# [13] = Ionophoric activity assessed as induction of pH discharge across EYPC based liposomal membranes using chloride salt of Cs+ ions at 3% by pyranine based fluorescence assay; conditions: artificial membrane
# [14] = Binding affinity to bromide anion assessed as association constant by spectrometric titration method relative to Me2bimpy
# [15] = Ionophoric activity assessed as induction of pH discharge across POPC based liposomal membranes at 1 to 5% by pyranine based fluorescence assay; conditions: artificial membrane
# [16] = Ionophoric activity assessed as induction of pH discharge across EYPC based liposomal membranes using chloride salt of K+ ions at 3% by pyranine based fluorescence assay; conditions: artificial membrane
# [17] = Binding affinity to chloride anion assessed as association constant by spectrometric titration method relative to Me2bimpy
# [18] = Ionophoric activity assessed as induction of pH discharge across EYPC based liposomal membranes using chloride salt of Li+ ions at 3% by pyranine based fluorescence assay; conditions: artificial membrane
# [19] = Binding affinity to nitrate anion assessed as association constant by spectrometric titration method relative to Me2bimpy
# [20] = Ionophoric activity assessed as induction of chloride influx into EYPC based liposomal membranes at 1 to 5% in presence of intravesicular and extravesicular by lucigenin based fluorescence assay; conditions: artificial membrane
# [21] = Ionophoric activity assessed as induction of chloride influx into EYPC based liposomal membranes at 5% measured within 5 mins by lucigenin based fluorescence assay; conditions: artificial membrane
# [22] = Ionophoric activity assessed as induction of pH discharge across EYPC based liposomal membranes using chloride salt of Na+ ions at 3% by pyranine based fluorescence assay; conditions: artificial membrane
Ka [2],Activity [3],Ka [4],Ka [5],Ka [6],Activity [7],SMILES,Activity [1] [%],also measured
4 ×10² /M,Not Active,7.23 ×10² /M,7.07 ×10² /M,5.03 ×10² /M,Not Active,Cn1c(-c2cccc(-c3nc4ccccc4n3C)n2)nc2ccccc21,,
8.71 ×10³ /M,Active,4.9 ×10³ /M,1.57 ×10³ /M,3.04 ×10³ /M,Active,c1cc(-c2nc3ccccc3[nH]2)nc(-c2nc3ccccc3[nH]2)c1,,Activity [9]: Active; Activity [10]: Not Active; fold change (FC) [11]: 2.2; Activity [12]: Active; Activity [13]: Active; fold change (FC) [14]: 6; Activity [15]: Not Active; Activity [16]: Active; fold change (FC) [17]: 22; Activity [18]: Active; fold change (FC) [19]: 6.8; Activity [20]: Active; Activity [21]: 35%; Activity [22]: Active

# Continued, molecule first:
SMILES,Ka [2],Activity [3],Ka [4],Ka [5],Ka [6],Activity [7],Activity [1] [%],also measured
CC(C)[C@H](C(=O)NCc1ccccc1)n1cc[n+](Cc2cccc(C[n+]3ccn([C@@H](C(=O)NCc4ccccc4)C(C)C)c3)c2)c1.O=S(=O)([N-]S(=O)(=O)C(F)(F)F)C(F)(F)F.O=S(=O)([N-]S(=O)(=O)C(F)(F)F)C(F)(F)F,,,,,,,35,
O=C(NCc1ccccc1)[C@@H](Cc1ccccc1)n1cc[n+](Cc2cccc(C[n+]3ccn([C@H](Cc4ccccc4)C(=O)NCc4ccccc4)c3)c2)c1.O=S(=O)([N-]S(=O)(=O)C(F)(F)F)C(F)(F)F.O=S(=O)([N-]S(=O)(=O)C(F)(F)F)C(F)(F)F,,,,,,,35,
c1cc(-c2nc3ccccc3[nH]2)cc(-c2nc3ccccc3[nH]2)c1,,,,,,,,Activity [8]: Active
CCCCCCCCCCCCNC(=O)[C@@H](C(C)C)n1cc[n+](Cc2cccc(C[n+]3ccn([C@@H](C(=O)NCCCCCCCCCCCC)C(C)C)c3)c2)c1.O=S(=O)([N-]S(=O)(=O)C(F)(F)F)C(F)(F)F.O=S(=O)([N-]S(=O)(=O)C(F)(F)F)C(F)(F)F,,,,,,,35,
